Measurements as given in patent publication US7671056B2, “Piperazine-piperidine antagonists and agonists of the 5-HT1A receptor” (Wyeth LLC, priority 2005, dated 2010).

Tests used:
[1] = tested on: sexually experienced male rats (Sprague-Dawley rats); assay: Animal model of SSRI-induced sexual dysfunction (non-contact penile erections); assay type: in vivo, rat
Procedure: The animal model is based on the finding that sexually experienced rats that are administered an SSRI, a drug used to treat certain conditions such as depression, display a reduction in the number of non-contact penile erections. SSRI treatment is associated with sexual dysfunction in human subjects. In general, the animal model exposes sexually experienced male rats (Sprague-Dawley rats) to female rats in estrous in a novel testing arena that is not the regular housing environment. The number of non-contact penile erections is assayed over a specified test period, e.g., 30 minutes (Sukoff, Rizzo, et al., 2006, Society for Neurosci. Abstr. 559.4; U.S. Application Ser. No. 60/682,3379, filed May 19, 2005). In the experiments described herein, animals were generally treated either with 0.9% saline (vehicle) or a drug (i.e., a compound of the invention) in the vehicle.
The ability of fluoxetine, an SSRI associated with sexual dysfunction in humans, to cause sexual dysfunction in the animal model was tested by examining a 10 mg/kg dose of fluoxetine or vehicle alone (0.9% saline), each administered intraperitoneally, once daily for 14 days, on the number of non-contact penile erections over a 30 minute trial period.
To examine the time course of the effects of a drug that causes sexual dysfunction, rats that were handled and tested as described above were treated acutely: rats were treated with vehicle for 6 days, and on the test day (day 7) instead of vehicle, the animals received a single dose of fluoxetine in vehicle (i.p.). For a subchronic (7 day) study, fluoxetine was administered each day for 7 days and the animals were evaluated on test day 7. For the chronic 14 day study, fluoxetine was administered each day for 14 days and the animals were tested on day 14. Each fluoxetine dose was 10 mg/kg in vehicle and was delivered i.p. on each of the test days as described above. The testing session for each section of the study was begun immediately following compound administration and the behavior observed for 30 minutes immediately following the drug administration. […]

[2] = tested on: male Sprague-Dawley rats; assay: In vivo microdialysis of frontal cortex 5-HT (enhancement of SSRI activity); set-up: species or system rat; conditions: acute fluoxetine alone, 30 mg/kg s.c.
Procedure: The ability of the compounds of this invention to reduce time for onset of action of the representative SSRI fluoxetine was assessed using in vivo microdialysis. Using 2-3% halothane anesthesia (Fluothane; Zeneca, Cheshire, UK), male Sprague-Dawley rats (280-350 g; Charles River, Wilmington, Mass.) were secured in a stereotaxic frame with ear and incisor bars (David Kopf, Tujunga, Calif.) while a microdialysis guide cannula (CMA/12, CMA Microdialysis, Sweden) was directed above the dorsal lateral frontal cortex (A/P+3.2 mm, M/L−3.5 mm, D/L−1.3 mm). Coordinates were taken with a flat skull using the rat brain atlas of Paxinos and Watson (1986). […]
For in vivo neurochemical experiments, a microdialysis probe (CMA/12; active membrane length 2 mm; OD 0.5 mm; 20 kD cut-off) was pre-washed with artificial CSF (aCSF; 125 mM NaCl, 3 mM KCl, 0.75 mM MgSO4 and 1.2 mM CaCl2, pH 7.4) according to the manufacturers specifications. […] Subsequent microdialysis samples were collected for 3 h post-injection and analyzed for 5-HT content by high performance liquid chromatography (HPLC). […] Subsequent sample values were expressed as a percent change from this preinjection baseline value (or % change from baseline). Neurochemical data, excluding preinjection values, were analyzed by a two-way analysis of variance (ANOVA) with repeated measures (time). […]

sexual function (number of non-contact penile erections over 30 minutes) ([1]; 10 mg/kg i.p. once daily for 14 days (chronic), vs vehicle, listed as Fluoxetine): decrease in sexual function
SMILES: CNCCC(Oc1ccc(C(F)(F)F)cc1)c1ccccc1 (stereo not shown) [fluoxetine]
sexual function (number of non-contact penile erections over 30 minutes) ([1]; 10 mg/kg i.p. each day for 7 days (sub-chronic)): significant increase in sexual dysfunction | sexual function (number of non-contact penile erections over 30 minutes) ([1]; 10 mg/kg i.p. once daily for 14 days (chronic), vs vehicle): significant increase in sexual dysfunction | frontal cortex serotonin levels [2]: did not increase serotonin levels
